Consider 31 compounds from patent US20240351995A1, “(3-PIRYDYL)-QUINAZOLINE” (BASF SE, priority 2021, published 2024).

The test system of experiment [1] is Corynespora cassiicola G413A mutant. Briefly: Microtest: activity against Corynespora cassiicola G413A mutant in the microtiterplate test. The settings on record: 31 ppm, relative to active compound-free control (100%). Format: cell-based. The text has this:
(§1) The active compounds were formulated separately as a stock solution having a concentration of 10000 ppm in dimethyl sulfoxide.
(§2) The stock solutions were mixed according to the ratio, pipetted onto a micro titer plate (MTP) and diluted with water to the stated concentrations.
(§3) The measured parameters were compared to the growth of the active compound-free control variant (100%) and the fungus-free blank value to determine the relative growth in % of the pathogens in the respective active compounds.
A spore suspension of Corynespora cassiicola in an aqueous biomalt or yeast-bactopeptone-sodiumacetate solution was then added.

Another experiment has as its system Cercospora zeae maydis. Briefly: Microtest: activity against Cercospora zeae maydis in the microtiterplate test. The settings on record: 31 ppm; relative to active compound-free control (100%). The experiment is classed as cell-based.
Description: as §1, §2, §3
A spore suspension of Cercospora zeae maydis in an aqueous biomalt or yeast-bactopeptone-sodiumacetate solution was then added.

Take `Cc1cc(C2=NC(C)(C)N(C#N)c3c(Cl)cccc32)cnc1C` [Ex-28]: in experiment [1], the “growth of the pathogen (relative growth in %)” value (“growth … (relative growth in %)” for short) was 19%.

As to `Cc1cc(C2=NC(C)(C)N(C)c3c(Cl)cccc32)cnc1C` [Ex-22], the “growth … (relative growth in %)” value in the experiment on Cercospora zeae maydis came out at 17%; in experiment [1], 19%.

On to `Cc1cc(C2=NC(C)(C)N(C)c3c2ccc(F)c3F)cnc1C(F)F` [Ex-91], for which the results for the “growth … (relative growth in %)” value (in the experiment with Cercospora zeae maydis; in experiment [1]) were 17% and 19%, respectively.

`Cc1cc(C2=NC(C)(C)N(C)c3c(Br)cccc32)cnc1C(F)F` [Ex-50]: the “growth … (relative growth in %)” value with Cercospora zeae maydis worked out at 17%; in experiment [1], 19%.

Take `Cc1ccc2c(c1)NC(C)(C)N=C2c1cnc(C(F)F)c(C)c1` [Ex-31]: in experiment [1], the “growth … (relative growth in %)” value is recorded as 19%.

As for `Cc1cc(C2=NC(C)(CC(C)C)N(C)c3c(F)cccc32)cnc1C(F)F` (racemic) [Ex-32], in experiment [1], the “growth … (relative growth in %)” value is given as 19%.

For the compound `Cc1cc(C2=NC(C)(C)Nc3c(Cl)cccc32)cnc1C` [Ex-23], the “growth … (relative growth in %)” value in experiment [1] is on record as 19%.

For `CCC1(C)N=C(c2cnc(C(F)F)c(C)c2)c2cccc(F)c2N1C` (racemic) [Ex-29], the “growth … (relative growth in %)” value with Cercospora zeae maydis is given as 17%; in experiment [1], 19%.

Regarding `CCC1(C)N=C(c2cnc(C(F)F)c(C)c2)c2cccc(F)c2N1` (racemic) [Ex-25], the “growth … (relative growth in %)” value in experiment [1] is 19%.

Consider `Cc1cc(C2=NC(C)(C)N(C)c3c(Cl)cccc32)cnc1C(F)F` [Ex-9], for which the “growth … (relative growth in %)” value with Cercospora zeae maydis worked out at 17%; in experiment [1], 19%.

For the compound `CCCCN1c2c(F)cccc2C(c2cnc(C(F)F)c(C)c2)=NC1(C)C` [Ex-14], the “growth … (relative growth in %)” value in experiment [1] is on record as 19%.

Regarding `Cc1cc(C2=NC(C)(C)N(C#N)c3ccccc32)cnc1C(F)F` [Ex-27], the “growth … (relative growth in %)” value in experiment [1] is recorded as 19%.

With `Cc1cc(C2=NC(C)(C3CC3)N(C)c3c(F)cccc32)cnc1C(F)F` (racemic) [Ex-56], the “growth … (relative growth in %)” value in the experiment with Cercospora zeae maydis is on record as 17%; in experiment [1] it was 19%.

On to `Cc1cc(C2=NC(C)(c3ccccc3)N(C)c3c(F)cccc32)cnc1C(F)F` (racemic) [Ex-60], for which the “growth … (relative growth in %)” value in the experiment on Cercospora zeae maydis is reported as 17%; in experiment [1], 19%.

Take `Cc1cc(C2=NC(C)(C)N(C)c3cc(F)ccc32)cnc1C(F)F` [Ex-36]: in experiment [1], the “growth … (relative growth in %)” value is on record as 19%.

Take `Cc1cc(C2=NC(C)(C)N(C)c3cc(Cl)ccc32)cnc1C(F)F` [Ex-38]: the results for the “growth … (relative growth in %)” value (in the experiment on Cercospora zeae maydis; in experiment [1]) were 17% and 19%, respectively.

Regarding `C#Cc1cccc2c1NC(C)(C)N=C2c1cnc(C(F)F)c(C)c1` [Ex-81], in the experiment on Cercospora zeae maydis, the “growth … (relative growth in %)” value is recorded as 17%.

For `CC(=O)N1c2c(F)cccc2C(c2cnc(C(F)F)c(C)c2)=NC1(C)C` [Ex-20], the “growth … (relative growth in %)” value in experiment [1] stood at 19%.

Take `Cc1cc(C2=NC(C)(CC(C)C)N(C#N)c3c(F)cccc32)cnc1C(F)F` (racemic) [Ex-41]: the “growth … (relative growth in %)” value with Cercospora zeae maydis was 17%; in experiment [1] it was 19%.

On to `Cc1cc(C2=NC(C)(C)N(CC(C)C)c3c(F)cccc32)cnc1C(F)F` [Ex-15], for which the “growth … (relative growth in %)” value in experiment [1] amounted to 19%.

As for `Cc1cc(C2=NC(C)(C)Nc3c(Cl)cccc32)cnc1C(F)F` [Ex-8], in experiment [1], the “growth … (relative growth in %)” value came out at 19%.

On to `CCN1c2c(F)cccc2C(c2cnc(C(F)F)c(C)c2)=NC1(C)C` [Ex-7], for which the “growth … (relative growth in %)” value in experiment [1] was determined as 19%.

Turning to `Cc1cc(C2=NC(C)(C)N(C)c3c(C)cccc32)cnc1C(F)F` [Ex-53], the results for the “growth … (relative growth in %)” value (in the experiment on Cercospora zeae maydis; in experiment [1]) were 17% and 19%, respectively.

In the case of `Cc1ccc2c(c1)N(C)C(C)(C)N=C2c1cnc(C(F)F)c(C)c1` [Ex-40], the “growth … (relative growth in %)” value in experiment [1] stood at 19%.

As for `Cc1cc(C2=NC(C)(C)N(C#N)c3ccccc32)cnc1C` [Ex-35], the “growth … (relative growth in %)” value in experiment [1] was 19%.

Regarding `Cc1cc(C2=NC(C)(C)N(C#N)c3cc(F)ccc32)cnc1C(F)F` [Ex-55], in experiment [1], the “growth … (relative growth in %)” value is recorded as 19%.

For the compound `Cc1cc(C2=NC(C)(C)Nc3c(F)cccc32)cnc1C(F)F` [Ex-5], the “growth … (relative growth in %)” value is listed as 17% in the experiment with Cercospora zeae maydis and 19% in experiment [1].

Regarding `Cc1cc(C2=NC(C)(C)N(C)c3c(F)cccc32)cnc1C(F)F` [Ex-6], the “growth … (relative growth in %)” value amounted to 17% in the experiment with Cercospora zeae maydis and 19% in experiment [1].

Consider `Cc1cc(C2=NC(C)(CC(C)C)Nc3c(F)cccc32)cnc1C(F)F` (racemic) [Ex-26], for which, in experiment [1], the “growth … (relative growth in %)” value was found to be 19%.

As for `CCCN1c2c(F)cccc2C(c2cnc(C(F)F)c(C)c2)=NC1(C)C` [Ex-13], the “growth … (relative growth in %)” value in experiment [1] is reported as 19%.

Turning to `Cc1cc(C2=NC(C)(c3ccccn3)N(C)c3c(F)cccc32)cnc1C(F)F` (racemic) [Ex-61], the figures for the “growth … (relative growth in %)” value (in the experiment with Cercospora zeae maydis; in experiment [1]) were 17% and 19%, respectively.
